One experiment relates to stem cells. As to conditions: novel dual-lumen device with lidocaine infusion, without pressure modulation; live porcine model, N=4, control single-hole device.
The conditions of experiment [1]: intraosseous infusion; cited from earlier work.

Structures are written as SMILES.

Procedure for stem cells: The colony forming unit (CFU) assay is an accepted measure of relative stem cell concentrations in BMA. […] A preliminary (N=4) trial of BMA in a live porcine model was performed comparing a single-hole cancer aspiration device to the novel dual-lumen BMA method.

`CCN(CC)CC(=O)Nc1c(C)cccc1C` [lidocaine]: in the experiment with stem cells, the “CFU/mL of aspirate versus control” value was “more than doubled”. For the same compound, in experiment [1], the whole-bone anesthesia result is reported as “effective in whole-bone anesthesia”.

Source of the values: patent US12419619B2, “Aspiration device” (YALE UNIVERSITY, priority 2016, dated 2025).
